Test results from patent US11833144B2, “Treating autoimmune disease” (Mayo Foundation for Medical Education and Research, priority 2020, dated 2023).

How the values were obtained:
[1] = test system: SCD; assay: 13C-glucose tracing of de novo fatty acid biosynthesis in activated B cells (NEFA isotopomer analysis); assay type: cell-based, mouse; conditions: 48 hours
Description: Briefly, 5×10^6 activated B cells were washed with PBS and re-cultured in glucose-free medium RPMI medium containing 10% dialyzed FBS and uniformly labeled [^13C]-glucose (2 g/L; Sigma-Aldrich) for 24 and 48 hours. Cell pellets were lysed in 1×PBS prior to lipid extraction. The extract was dried down and brought up in running buffer before underwent analysis on an Agilent 6550 iFunnel Q-TOF mass spectrometer/1290 Infinity liquid chromatographic system. A mixed standard containing 14 fatty acids was also run at the beginning and at the end of the sequence to generate retention time lock as well as unlabeled mass spectrum for each fatty acid. The mass spec was operating in negative electrospray ionization. Data was acquired in scan mode from 50-1700 m/z range. Data analysis was performed on Agilent Technologies software including Profinder, Mass Profiler Professional (MPP) and Vista Flux. Briefly, the features extracted from the data files were aligned using Profinder and converted to a compound exchange file (CEF) format to import in the MPP. The list was filtered for frequency and abundance to identify features that are present in all samples and with high abundance. A library was created using mass, molecular formula, and retention time of these features and used in conjunction with the Vista Flux software to determine the presence of isotopologue in individual feature. […]

[2] = test system: activated murine B cells; assay: TMRM staining of mitochondrial membrane potential in activated murine B cells; assay type: cell-based, mouse; conditions: 72 hours; for mitochondrial membrane potential (TMRM): substance alone
Description: For analysis of surface markers, cells were stained in PBS containing 1% (w/v) bovine serum albumin on ice for 30 minutes, with anti-IgG1 (RMG1-1, Biolegend), anti-CD19 (ID3, Biolegend) anti-B220 (RA3-6B2, Biolegend), anti-CD4 (GK1.5, Biolegend), anti-CD8 (53-6.7, Biolegend), anti-CD25 (PC16, Biolegend), anti-GL7 (GL-7, Biolegend), anti-CD95 (Jo2, BD Biosciences), anti-CD138 (281-2, Biolegend), anti-IgD (11-26c.2a, Biolegend), anti-PD-1 (J43, ThermoFisher), anti-IgM (II/41, ThermoFisher). Antigen specific GC response was detected with tetramer NP-phycoerythrin conjugated with PE (Biosearch Technologies). CXCR5 was stained with biotinylated anti-CXCR5 (2G8) followed by staining with streptavidin-conjugated PE (both from BD Biosciences). Cell viability was assessed using the Fixable Dye Ghost 510 (Tonbo Bioscience) or Annexin V cell apoptosis kit with 7-AAD (ThermoFisher) following the manufacturer's protocol. Phosflow staining for phospho-S6 (S235/236) was performed using Phosflow Fix/Perm kit (BD Biosciences). Mitochondrial potential was measured by staining with 20 nM TMRM (ThermoFisher) following manufacturer's instructions. Flow cytometry was performed on the LSR II, LSR Fortessa (BD Biosciences) or Attune NxT (ThermoFisher) cytometers, and analysis was performed using FlowJo software (Tree Star).

[3] = test system: mice immunized with NP-OVA; assay: NP-OVA immunization of mice fed SSI-4 chow: humoral immune response; assay type: in vivo, mouse
[4] = test system: human B cells; assay: Human naive B cell proliferation (thymidine incorporation) and CD27 expression; assay type: cell-based
Description: PBMCs were isolated from the medical waste following apheresis collection of platelets. Briefly, blood was diluted 1:3 using PBS. The diluted blood was then overlaid with Ficoll-Paque PLUS density gradient medium (GE Healthcare). The gradient was centrifuged at 400 g with no brake for 25 minutes at room temperature. The PBMC interphase layer was collected, washed with PBS with 0.1% BSA/2 mM of EDTA. Naive B cells (CD19^+CD27^−IgD^+) were enriched using Human naive B cell negative selection kit (Stemcell Technologies). Mouse B cells were isolated from pooled single cell suspensions of spleen and peripheral lymph nodes using CD19 Microbeads (Miltenyi) or Mouse B cell Isolation Kit (Stemcell Technologies). B cells were stimulated with LPS (10 μg/mL; Sigma-Aldrich) and recombinant IL-4 cytokine (10 ng/mL; Tonbo Bioscience) with or without SCD inhibitor SSI-4, and proliferation was measured by dilution of CellTrace Violet proliferation dye (Thermo Fisher Scientific). B cells were also stimulated with anti-IgM (10 μg/mL; Jackson ImmunoResearch), anti-CD40 (10 μg/mL; BioXcell) and IL-4 (10 ng/mL; Tonbo Bioscience), or TLR ligand CpG (2.5 μM; IDT), recombinant IL-4 and IL-5 (10 ng/mL; Tonbo Bioscience) cytokines. To test the function of monounsaturated and saturated fatty acids, B cells were activated in presence of exogenous fatty acid-BSA conjugate. Palmitoleic acid (NU-CHEK PREP, INC), palmitic acid (NU-CHEK PREP, INC), stearic acid (NU-CHEK PREP, INC) were conjugated with fatty acid free BSA (Sigma-Aldrich) as described elsewhere (Wang et al., Immunity 35:871-882 (2011)). Human B cells were activated with CpG OND2006 (2.5 μM; IDT), recombinant human cytokine IL-10 ([…]; Peprotech), IL-15 (10 ng/mL; Peprotech), IL-4 (10 ng/mL; Biolegend), IL-2 (10 unit/mL) and anti-human CD40 (1 μg/mL; BioXcell). Human B cell proliferation was measured by ^3[H]-thymidine incorporation (1 μCi/mL) (American Radiolabeled Chemicals).

[5] = test system: activated human B cells; assay: Seahorse OCR / ECAR in activated human B cells; assay type: cell-based
Description: The bioenergetic activities of the OCR and ECAR were measured using a Seahorse XFe96 Extracellular Flux Analyzed following established protocols (Agilent). Briefly, B cells were seeded at 200,000 cells/well on Cell-Tak (Corning) coated XFe96 plate with fresh XF media (Seahorse XF RPMI medium containing 10 mM glucose, 2 mM L-glutamine, and 1 mM sodium pyruvate, PH 7.4; all reagents from Agilent). OCR was measured in the presence of Oligomycin (1.5 μM; Sigma-Aldrich), FCCP (1.5 μM; Sigma-Aldrich), and Rotenone (1 μM; Sigma-Aldrich)/Antimycin A (1 μM; Sigma-Aldrich) in Mito Stress assay. For ECAR measurement, B cells were seeded in XFe96 plate with fresh Seahorse XF RPMI medium with 2 mM L-glutamine (PH 7.4), and treated with glucose (10 mM; Agilent), Oligomycin (1.5 and 2-DG (50 mM; Sigma-Aldrich) orderly in Glycolysis Stress assay.

Structure (SMILES) | 13C incorporation from glucose in OA, PO and vaccenic acid [1] | 13C incorporation from glucose into SA, PA and myristic acid [1] | mitochondrial membrane potential (TMRM) [2] | B220intCD138+ plasmablast generation ([3]; NP-OVA immunized, SSI-4 chow) | antigen specific NP+ GC B cells ([3]; NP-OVA immunized, SSI-4 chow) | splenic GC formation ([3]; NP-OVA immunized, SSI-4 chow) | OA level in sera of immunized mice ([3]; NP-OVA immunized, SSI-4 chow, GC-MS) | mTORC1 activity (p-S6 MFI) in splenic B cells in vivo ([3]; SSI-4 chow (30 mg/kg), NP-OVA immunization for one week) | percentage of Tfh cells after immunization ([3]; SSI-4 chow vs control chow) | production of anti-NP specific IgM antibodies ([3]; serum ELISA) | production of anti-NP specific total IgG and IgG1 antibodies ([3]; serum ELISA) | restoration of human B cell proliferation and CD27 expression upon SSI-4 treatment ([4]; SSI-4 (10 nM) plus exogenous OA) | human B cell activation measured by CD27 expression, exogenous OA alone ([4]; flow cytometry MFI) | human B cell proliferation, exogenous OA alone ([4]; thymidine incorporation) | human B cell glycolysis (ECAR) ([5]; exogenous OA, 72 h) | respiration (OCR) in activated human B cells ([5]; exogenous fatty acid, 72 hours) | mitochondrial membrane potential (TMRM) under SCD inhibition with exogenous OA ([2]; SSI-4 plus OA)
CNC(=O)c1ccnc(NC(=O)N2CCC(Oc3ccccc3Cl)CC2)c1 [SSI-4, 2-{[4-(2-Chlorophenoxy)piperidine-1-carbonyl]amino}-N-methylpyridine-4-carboxamide] | all abolished | largely unaffected | reduced mitochondrial membrane potential | not affected | reduced | significantly suppressed | substantially reduced | suppressed mTORC1 activity | comparable | but not IgM | significantly reduced |  |  |  |  |  | 
CCCCCCCC/C=C\CCCCCCCC(=O)O [OA, oleic acid] |  |  | able to increase mitochondrial membrane potential |  |  |  |  |  |  |  |  | restored B cell proliferation and CD27 expression | promoted | promoted human B cell proliferation | improved human B cell glycolysis | augmented respiration | corrected
